Holding throughout (type): cell-based
Test [1] deals with T1, GDF-11 (Homo sapiens, UniProt O95390).
T1 construct: purchased R&D systems 1958-GD-G8/CF
T1 sequence (O95390 299-407): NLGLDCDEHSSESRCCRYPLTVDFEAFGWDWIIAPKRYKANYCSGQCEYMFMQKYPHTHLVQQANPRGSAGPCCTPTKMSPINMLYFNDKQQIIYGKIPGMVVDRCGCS
Nature of the test: Reporter gene assay for myostatin signaling in HepG2 cell line, Evaluation Procedure (1), GDF-11 inhibition. The following applies: Method A: GDF-11 10 ng/mL; read-out: IC50 (Luciferase) GDF-11 HepG2. In outline:
(§1)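 IC50 derived from One-Glo luciferase luminescence after 20–24 h at 37 °C. Peptides titrated 4-fold at 0.006–100 nmol/L against myostatin or 0.12–2000 nmol/L against GDF-11 in HepG2 cells carrying a transfected CAGA12-luciferase reporter, kept in 0.1% BSA EMEM.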

In test [2] the test system is Myostatin. The experiment in a line: Reporter gene assay for myostatin signaling in HepG2 cell line, Evaluation Procedure (1), myostatin inhibition. The following applies: Method A; GDF-11 IC50 versus Myostatin IC50. In outline:
as §1

The target of test [3] is T2, Myostatin (Homo sapiens, UniProt O14793).
T2 construct: active myostatin (also called mature myostatin) is a homodimer consisting of two C-terminal growth factor domains; purchased R&D systems 788-G8/CF
T2 sequence (O14793 267-375): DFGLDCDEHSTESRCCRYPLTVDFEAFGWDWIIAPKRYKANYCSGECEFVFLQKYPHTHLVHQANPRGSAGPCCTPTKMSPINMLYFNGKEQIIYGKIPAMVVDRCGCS
Described as above. The following applies: Method A: Myostatin 10 ng/mL; read-out: IC50 (Luciferase) Myostatin HepG2. An outline of the steps:
as §1

Our source for the IC50 and Selectivity values is patent EP4786487A1, “PEPTIDE” (Peptidream Inc, priority 2023, dated 2025).

Starred links: 1 amine or outer side, 2 acyl side, 3 side chain; linkers in the order of their positions; H or OH if unused. Positions of bridges follow the written chain, without caps; N, C: chain ends. Non-standard residues stand in square brackets, D forms with d. Residues, ends and D or L forms follow the SMILES beside them. Groups on a side chain read outwards from the residue. *: point of attachment. Phe(3-OCH2COOH) = N[C@@H](Cc1cccc(OCC(=O)O)c1)C(=O)O; Phe(4-COOH) = N[C@@H](Cc1ccc(C(=O)O)cc1)C(=O)O; Piperazinyl(4-CH2COOH) = O=C(O)CN1CCN(*)CC1; X1 = CCCCCCC[C@H](N[*:1])C(=O)[*:2]; NMeCha = CN[C@@H](CC1CCCCC1)C(=O)O; NMeF = CN[C@@H](Cc1ccccc1)C(=O)O; Cha = N[C@@H](CC1CCCCC1)C(=O)O; NMeA = CN[C@@H](C)C(=O)O; CO = O=C([*:1])[*:2]; Sar = CNCC(=O)O

Consider `CCCCCCC[C@@H]1NC(=O)[C@H](CC2CCCCC2)NC(=O)[C@H](CCCNC(=N)N)NC(=O)[C@H](Cc2ccc(C(=O)O)cc2)NC(=O)[C@H](CCCCNC(=O)N2CCN(CC(=O)O)CC2)NC(=O)[C@H]2CCCN2C(=O)[C@H]([C@@H](C)CC)NC(=O)[C@H](CC2CCCCC2)N(C)C(=O)[C@H](Cc2ccc(O)cc2)NC(=O)[C@H](Cc2c[nH]c3ccccc23)NC(=O)[C@@H](CCC(=O)O)NC(=O)[C@H](C)NC(=O)CSC[C@H](C(=O)N2CCN(CC(=O)O)CC2)NC(=O)[C@H](Cc2ccccc2)N(C)C(=O)[C@H](C)N(C)C1=O` [Myostatin_99_v244] ({CH2CO}-A[dE]WY[NMeCha]I[dP]K([CO-Piperazinyl(4-CH2COOH)])[Phe(4-COOH)]R[Cha][X1][NMeA][NMeF][dC]-{Piperazinyl(4-CH2COOH)}; thioether N-15), for which the IC50 in test [1] is 13600 nM; in test [3], 17.7 nM. Also, the Selectivity in test [2] was 771.

Turning to `CCCCCCC[C@@H]1NC(=O)[C@H](CC2CCCCC2)N(C)C(=O)[C@H](CCCNC(=N)N)NC(=O)[C@H](Cc2ccc(C(=O)O)cc2)NC(=O)[C@H](CCCCNC(=O)N2CCN(CC(=O)O)CC2)NC(=O)[C@H]2CCCN2C(=O)[C@H]([C@@H](C)CC)NC(=O)[C@H](CC2CCCCC2)N(C)C(=O)[C@H](Cc2ccc(O)cc2)NC(=O)[C@H](Cc2c[nH]c3ccccc23)NC(=O)[C@@H](CCC(=O)O)NC(=O)[C@H](C)NC(=O)CSC[C@H](C(=O)N2CCN(CC(=O)O)CC2)NC(=O)[C@H](Cc2ccccc2)N(C)C(=O)[C@H](C)N(C)C1=O` [Myostatin_99_v248] ({CH2CO}-A[dE]WY[NMeCha]I[dP]K([CO-Piperazinyl(4-CH2COOH)])[Phe(4-COOH)]R[NMeCha][X1][NMeA][NMeF][dC]-{Piperazinyl(4-CH2COOH)}; thioether N-15), the values for the IC50 in test [1] and in test [3] were 3530 nM and 21.5 nM, respectively. The Selectivity in test [2] stood at 164.

`CCCCCCC[C@@H]1NC(=O)[C@H](CC2CCCCC2)NC(=O)[C@H](CCCNC(=N)N)NC(=O)[C@H](Cc2ccc(C(=O)O)cc2)NC(=O)[C@H](CCCCNC(=O)N2CCN(CC(=O)O)CC2)NC(=O)CN(C)C(=O)[C@H]([C@@H](C)CC)NC(=O)[C@H](CC2CCCCC2)N(C)C(=O)[C@H](Cc2ccc(O)cc2)NC(=O)[C@H](Cc2c[nH]c3ccccc23)NC(=O)[C@@H](CCC(=O)O)NC(=O)[C@H](C)NC(=O)CSC[C@H](C(=O)N2CCN(CC(=O)O)CC2)NC(=O)[C@H](Cc2ccccc2)N(C)C(=O)[C@H](C)N(C)C1=O` [Myostatin_99_v249] ({CH2CO}-A[dE]WY[NMeCha]I[Sar]K([CO-Piperazinyl(4-CH2COOH)])[Phe(4-COOH)]R[Cha][X1][NMeA][NMeF][dC]-{Piperazinyl(4-CH2COOH)}; thioether N-15): the IC50 was found to be 119 nM in test [1] and 0.5 nM in test [3]. The compound also yielded a Selectivity in test [2] of 237.

For the compound `CCCCCCC[C@@H]1NC(=O)[C@H](Cc2ccccc2)N(C)C(=O)[C@H](CCCNC(=N)N)NC(=O)[C@H](Cc2ccc(C(=O)O)cc2)NC(=O)[C@H](Cc2cccc(OCC(=O)O)c2)NC(=O)[C@H]2CCCN2C(=O)[C@H]([C@@H](C)CC)NC(=O)[C@H](CC2CCCCC2)N(C)C(=O)[C@H](Cc2ccc(O)cc2)NC(=O)[C@H](Cc2c[nH]c3ccccc23)NC(=O)[C@@H](CCC(=O)O)NC(=O)[C@H](C)NC(=O)CSC[C@H](C(=O)N2CCN(CC(=O)O)CC2)NC(=O)[C@H](Cc2ccccc2)N(C)C(=O)[C@H](C)N(C)C1=O` [Myostatin_99_v253] ({CH2CO}-A[dE]WY[NMeCha]I[dP][Phe(3-OCH2COOH)][Phe(4-COOH)]R[NMeF][X1][NMeA][NMeF][dC]-{Piperazinyl(4-CH2COOH)}; thioether N-15), the IC50 in test [1] came to 2440 nM; in test [3], 5.7 nM. In test [2], the Selectivity was determined as 428.
